In patent US7872004B2, “6-(heterocyclyl-substituted benzyl)-4-oxoquinoline compound and use thereof as HIV integrase inhibitor” (Japan Tobacco Inc., priority 2006, dated 2011) one finds IC50 data, which are given here for 19 compounds.

The target of this assay is T1, HIV integrase (Human immunodeficiency virus type 1 group M subtype B, UniProt P12497, F1332H).
T1 construct: HIV integrase full length gene; made in house; host or cells: Escherichia coli BL21(DE3)
The experiment in a line: Determination of enzyme (HIV integrase) inhibitory activity. It counts as biochemical, HIV (Human Immunodeficiency Virus (type 1)). Conditions: recombinant integrase protein (F185H), strand transfer plate assay, absorbance at 450 nm. An excerpt: The following explains evaluation methods of the HIV integrase inhibitory activity of the compound of the present invention.
(i) Construction of Recombinant Integrase Gene Expression System
HIV integrase full length gene (J. Virol., 67, 425-437 (1993)) in which phenylalanine at codon 185 was substituted by histidine, was inserted between the restriction enzyme NdeI and XhoI sites of plasmid pET21a(+) (Novagen), whereby an integrase expression vector pET21a-IN-F185H was constructed.
(ii) Production and Purification of Integrase Protein
Escherichia coli recombinant BL21(DE3) transformed with plasmid pET21a-IN-F185H obtained in (i) was shake cultured at 30° C. in a liquid medium containing ampicillin. When the culture reached the logarithmic growth phase, isopropyl-β-D-thiogalactopyranoside was added to promote expression of integrase gene. The culture was continued for 3 hr to promote accumulation of the integrase protein. The recombinant E. coli was collected in pellets by centrifugal separation and preserved at −80° C.
The E. coli was suspended in Lysis buffer ([…] HEPES (pH 7.5), 5 mM DTT, 10 mM CHAPS, 10% glycerol) containing 1M sodium chloride and subjected to repeat pressurization and depressurization for rupture, and centrifugal separation at 4° C., 40,000×g, 60 min to recover a water-soluble fraction (supernatant). This was diluted 10-fold with Lysis buffer free of sodium chloride, mixed with SP-Sepharose (GE healthcare Bioscience) and stirred at 4° C. for 60 min to allow adsorption of integrase protein to the resin. The resin was washed with Lysis buffer containing 100 mM sodium chloride and the integrase protein was eluted with Lysis buffer containing 1M sodium chloride.
The eluted integrase protein solution was subjected to a Superdex 75 (GE healthcare Bioscience) column for gel filtration. The protein was eluted with Lysis buffer containing 1M sodium chloride.
The obtained fractions of the integrase protein were collected and preserved at −80° C.
(iii) Preparation of DNA Solution
The following DNA synthesized by Greiner or FASMAC was dissolved in TE buffer (10 mM Tris-hydrochloric acid (pH 8.0), 1 mM EDTA) and mixed with donor DNA, target DNA, and each complementary strand (+ and − strands) to 1 μM. The mixture was heated at 95° C. for 5 min, 80° C. for 10 min, 70° C. for 10 min, 60° C. for 10 min, 50° C. for 10 min and 40° C. for 10 min and kept at 25° C. to give a double stranded DNA, which was used for the test.
(iv) Determination of Enzyme (HIV Integrase) Inhibitory Activity
The donor DNA was diluted with TE buffer to 10 nM (or 5 nM), of which 50 μl was added to each well of streptavidin-coated microtiter plate (Roche) and allowed to adsorb at 37° C. for 60 min. The plate was washed with phosphate buffer (Dulbecco's PBS, Sanko Junyaku Co., Ltd.) containing 0.1% Tween 20 and phosphate buffer. Then, an enzyme reaction mixture (70 μl), a test substance (10 μl) diluted with the enzyme reaction mixture and 100 μg/ml (or 64 μg/ml (2 μM)) integrase protein (10 μl) were added to each well and reacted at 37° C. for 60 min.
Composition of the enzyme reaction mixture: 30 mM MOPS (3-morpholinopropanesulfonic acid), 5 mM magnesium chloride, 3 mM DTT (dithiothreitol), 0.1 mg/ml BSA (bovine serum albumin), 5% glycerol, 10% DMSO (dimethyl sulfoxide), 0.01% Tween 20.
Then, 50 nM (or 25 nM) target DNA (10 μl) was added, reacted at 37° C. for 10 min and washed with phosphate buffer containing 0.1% Tween 20 to stop the reaction.
Then, 100 mU/ml peroxidase labeled anti-digoxigenin antibody solution (Roche, 100 μl) was added, and the mixture was reacted at 37° C. for 60 min, followed by washing with phosphate buffer containing 0.1% Tween 20.
A peroxidase color solution (Bio Rad, 100 μl) was added and allowed to react at room temperature for 4 min (or 3 min). The color reaction was stopped by adding IN sulfuric acid (100 μl). The absorbance at 450 nm was measured. […]
By IC50 is commonly meant the concentration that inhibits the measured activity by half. `CCO[C@H](C)[C@@H](CO)n1cc(C(=O)O)c(=O)c2cc(Cc3cc(N4CCOCC4)cc(Cl)c3F)c(CC)cc21` [Example 38, 6-[3-chloro-2-fluoro-5-(morpholin-4-yl)benzyl]-1-[(1R,2R)-2-ethoxy-1-(hydroxymethyl)propyl]-7-ethyl-4-oxo-1,4-dihydroquinoline-3-carboxylic acid]: the IC50 is less than 10 nM. For `COc1cc2c(cc1Cc1cc(-c3noc(C)n3)cc(Cl)c1F)c(=O)c(C(=O)O)cn2[C@H](CO)C(C)C` [Example 57, 6-[3-chloro-2-fluoro-5-(5-methyl-1,2,4-oxadiazol-3-yl)benzyl]-1-((S)-1-hydroxymethyl-2-methylpropyl)-7-methoxy-4-oxo-1,4-dihydroquinoline-3-carboxylic acid] the value was less than 10 nM. For `COCC[C@@H](CO)n1cc(C(=O)O)c(=O)c2cc(Cc3cc(N4CCOCC4)cc(Cl)c3F)c(OC)cc21` [Example 29, 6-[3-chloro-2-fluoro-5-(morpholin-4-yl)benzyl]-1-((S)-1-hydroxymethyl-3-methoxypropyl)-7-methoxy-4-oxo-1,4-dihydroquinoline-3-carboxylic acid] the value was less than 10 nM; for `CC(C)(C)[C@@H](CO)n1cc(C(=O)O)c(=O)c2cc(Cc3cc(N4CCOCC4)cc(Cl)c3F)ccc21` [Example 53, 6-[3-chloro-2-fluoro-5-(morpholin-4-yl)benzyl]-1-((S)-1-hydroxymethyl-2,2-dimethylpropyl)-4-oxo-1,4-dihydroquinoline-3-carboxylic acid], less than 10 nM. For `COc1cc2c(cc1Cc1cc(N3CC[C@@H](F)C3)cc(Cl)c1F)c(=O)c(C(=O)O)cn2[C@H](CO)C(C)C` [Example 13, 6-[3-chloro-2-fluoro-5-((R)-3-fluoropyrrolidin-1-yl)benzyl]-1-((S)-1-hydroxymethyl-2-methylpropyl)-7-methoxy-4-oxo-1,4-dihydroquinoline-3-carboxylic acid] the value was less than 10 nM; for `COc1cc2c(cc1Cc1cc(N3CCOCC3)c(F)c(Cl)c1F)c(=O)c(C(=O)O)cn2[C@H](CO)C(C)(C)C` [Example 49, 6-[3-chloro-2,4-difluoro-5-(morpholin-4-yl)benzyl]-1-((S)-1-hydroxymethyl-2,2-dimethylpropyl)-7-methoxy-4-oxo-1,4-dihydroquinoline-3-carboxylic acid], less than 10 nM; for `COc1cc2c(cc1Cc1cc(N3CCOCC3)cc(Cl)c1F)c(=O)c(C(=O)O)cn2[C@H](CO)[C@@H](C)OC` [Example 15, 6-[3-chloro-2-fluoro-5-(morpholin-4-yl)benzyl]-1-((1R,2R)-1-hydroxymethyl-2-methoxypropyl)-7-methoxy-4-oxo-1,4-dihydroquinoline-3-carboxylic acid], less than 10 nM.

Turning to `COc1cc2c(cc1Cc1cc(N3CCOC3=O)cc(Cl)c1F)c(=O)c(C(=O)O)cn2[C@H](CO)C(C)C` [Example 4, 6-[3-chloro-2-fluoro-5-(2-oxooxazolidin-3-yl)benzyl]-1-((S)-1-hydroxymethyl-2-methylpropyl)-7-methoxy-4-oxo-1,4-dihydroquinoline-3-carboxylic acid], the IC50 is less than 10 nM. `COc1cc2c(cc1Cc1cc(N3CC[C@@H](O)C3)cc(Cl)c1F)c(=O)c(C(=O)O)cn2[C@H](CO)C(C)C` [Example 8, 6-[3-chloro-2-fluoro-5-((R)-3-hydroxypyrrolidin-1-yl)benzyl]-1-((S)-1-hydroxymethyl-2-methylpropyl)-7-methoxy-4-oxo-1,4-dihydroquinoline-3-carboxylic acid]: the IC50 was less than 10 nM.

With `CC(C)(C)[C@@H](CO)n1cc(C(=O)O)c(=O)c2cc(Cc3cc(N4CCCC4=O)c(F)c(Cl)c3F)ccc21` [Example 54, 6-[3-chloro-2,4-difluoro-5-(2-oxopyrrolidin-1-yl)benzyl]-1-((S)-1-hydroxymethyl-2,2-dimethylpropyl)-4-oxo-1,4-dihydroquinoline-3-carboxylic acid], the half-inhibitory concentration (IC50) was less than 10 nM. In the case of `CCc1cc2c(cc1Cc1cc(N3CCOCC3)cc(Cl)c1F)c(=O)c(C(=O)O)cn2[C@H](CO)C(C)(C)OC` [Example 43, 6-[3-chloro-2-fluoro-5-(morpholin-4-yl)benzyl]-7-ethyl-1-((R)-1-hydroxymethyl-2-methoxy-2-methylpropyl)-4-oxo-1,4-dihydroquinoline-3-carboxylic acid], the half-maximal inhibitory concentration (IC50) is less than 10 nM. For `COC[C@@H](CO)n1cc(C(=O)O)c(=O)c2cc(Cc3cc(N4CCOCC4)cc(Cl)c3F)c(OC)cc21` [Example 22, 6-[3-chloro-2-fluoro-5-(morpholin-4-yl)benzyl]-1-[(R)-2-hydroxy-1-(methoxymethyl)ethyl]-7-methoxy-4-oxo-1,4-dihydroquinoline-3-carboxylic acid] the value was less than 10 nM. As to `COc1cc2c(cc1Cc1cc(-c3ccccn3)cc(Cl)c1F)c(=O)c(C(=O)O)cn2[C@H](CO)C(C)C` [Example 36, 6-[3-chloro-2-fluoro-5-(pyridin-2-yl)benzyl]-1-((S)-1-hydroxymethyl-2-methylpropyl)-7-methoxy-4-oxo-1,4-dihydroquinoline-3-carboxylic acid], the IC50 was less than 10 nM. For `COc1cc2c(cc1Cc1cc(N3CCC(F)(F)C3)cc(Cl)c1F)c(=O)c(C(=O)O)cn2[C@H](CO)C(C)C` [Example 12, 6-[3-chloro-5-(3,3-difluoropyrrolidin-1-yl)-2-fluorobenzyl]-1-((S)-1-hydroxymethyl-2-methylpropyl)-7-methoxy-4-oxo-1,4-dihydroquinoline-3-carboxylic acid] the value was less than 10 nM. For `COc1cc2c(cc1Cc1cc(N3CCC(=O)N3C)cc(Cl)c1F)c(=O)c(C(=O)O)cn2[C@H](CO)C(C)C` [Example 10, 6-[3-chloro-2-fluoro-5-(2-methyl-3-oxopyrazolidin-1-yl)benzyl]-1-((S)-1-hydroxymethyl-2-methylpropyl)-7-methoxy-4-oxo-1,4-dihydroquinoline-3-carboxylic acid] the value was less than 10 nM. Take `COc1cc2c(cc1Cc1cc(N3CCN(C(C)=O)CC3)cc(Cl)c1F)c(=O)c(C(=O)O)cn2[C@H](CO)C(C)C` [Example 11, 6-[5-(4-acetylpiperazin-1-yl)-3-chloro-2-fluorobenzyl]-1-((S)-1-hydroxymethyl-2-methylpropyl)-7-methoxy-4-oxo-1,4-dihydroquinoline-3-carboxylic acid]: the IC50 is less than 10 nM. For `COc1cc2c(cc1Cc1cc(N3CC[C@H](F)C3)cc(Cl)c1F)c(=O)c(C(=O)O)cn2[C@H](CO)C(C)C` [Example 14, 6-[3-chloro-2-fluoro-5-((S)-3-fluoropyrrolidin-1-yl)benzyl]-1-((S)-1-hydroxymethyl-2-methylpropyl)-7-methoxy-4-oxo-1,4-dihydroquinoline-3-carboxylic acid] the value was less than 10 nM.

Consider `COc1cc2c(cc1Cc1cc(N3CCCC3=O)cc(Cl)c1F)c(=O)c(C(=O)O)cn2[C@H](CO)C(C)C` [Example 2, 6-[3-chloro-2-fluoro-5-(2-oxopyrrolidin-1-yl)benzyl]-1-((S)-1-hydroxymethyl-2-methylpropyl)-7-methoxy-4-oxo-1,4-dihydroquinoline-3-carboxylic acid], for which the IC50 is less than 10 nM. For the compound `COc1cc2c(cc1Cc1cc(N3CCCC3=O)c(F)c(Cl)c1F)c(=O)c(C(=O)O)cn2[C@H](CO)C(C)(C)C` [Example 46, 6-[3-chloro-2,4-difluoro-5-(2-oxopyrrolidin-1-yl)benzyl]-1-((S)-1-hydroxymethyl-2,2-dimethylpropyl)-7-methoxy-4-oxo-1,4-dihydroquinoline-3-carboxylic acid], the IC50 was less than 10 nM.
